Laboratory results as given in patent US20130064815A1, “INDUCING APOPTOSIS IN QUIESCENT CELLS” (THE TRUSTEES OF PRINCETON UNIVERSITY, priority 2011, published 2013).

Experiments:
P and CI14 fibroblasts = assay: PPP inhibition and PI live/dead analysis by flow cytometry; type: cell-based, human; conditions: CI14 vs proliferating fibroblasts; 100 μM and 250 μM, four days; p<0.01
Procedure: The function of the PPP in quiescent and proliferating fibroblasts was tested. Proliferating or CI14 fibroblasts were incubated with DHEA, a small molecule inhibitor of the PPP for four days. The fraction of cells that were dead was monitored with propidium iodide (PI) labeling followed by flow cytometry.
PPP inhibition and PI live/dead analysis: P and CI14 fibroblasts were treated with dehydroepiandrosterone dissolved in ethanol or dimethylsufoxide (0.1% vol/vol) for four days. On the fourth day of treatment with the inhibitor, cells were trypsinized and collected into conditioned media. Cells were then centrifuged for 5 min at 1000 rpm. The supernatant was aspirated and cells were taken up in PBS with 1 μg/ml PI (VWR, West Chester, Pa.). Cells were kept on ice and immediately analyzed by flow cytometry using a BD LSRII multi-laser analyzer (BD Biosciences, San Jose, Calif.). PI was excited at 488 nm and emitted fluorescence was collected through a 610/20 bandpass filter. At least 40,000 cells were collected and analyzed with FACSDiVa software (BD Biosciences, San Jose, Calif.). PI negative cells were counted as live cells and PI positive cells were counted as dead cells.

[1] = test system: intracellular reduced glutathione; assay: intracellular reduced glutathione by monochlorobimane flow cytometry; type: cell-based, human; conditions: serum-starved fibroblasts after DHEA treatment
Procedure: It was tested whether the increase in glutathione reductase activity in serum-starved fibroblasts was associated with elevated levels of reduced glutathione. 7 dSS fibroblasts were focused on because they had the highest activity of the four enzymes in the NADPH production pathway. Flow cytometry was used to monitor the levels of glutathione in proliferating and 7 dSS fibroblasts with monochlorobimane (MCB), a compound that forms blue fluorescent adducts when it reacts with intracellular reduced glutathione (Sebastia et al., “Evaluation of fluorescent dyes for measuring intracellular glutathione content in primary cultures of human neurons and beuroblastoma SH-SY5Y, Cytometry A 51, 16-25, 2003, which is incorporated herein by reference as if fully set forth). […] The results are consistent with a model in which the NADPH production program activated in the serum-starved fibroblasts contributes to a larger pool of reduced glutathione.
It was expected that the reduction in NADPH levels that resulted from DHEA treatment would result in lower activity of glutathione reductase and thus a decrease in the levels of reduced glutathione. […] The depletion of glutathione in response to DHEA could be an important part of the apoptotic pathway. […]

oxidized proteins = assay: oxidized (carbonylated) protein immunoblot after DNP derivatization; type: cell-based, human; conditions: DHEA treatment
Text: Glutathione plays an important role in ROS scavenging, both by acting as a cofactor for glutathione peroxidase and via direct interaction with ROS (Jones et al., “Kinetics of superoxide scavenging by glutathione: an evaluation of its role in the removal of mitochrondrial superoxide, Biochem Soc Trans 31, 1337-1339, 2003, which is incorporated herein by reference as if fully set forth). The effects of DHEA treatment on the levels of oxidized proteins were monitored in proliferating and 7 dSS fibroblasts (FIG. 20). Oxidized, carbonylated proteins were derivatized with […] and monitored with an anti-2,4, dinitrophenol antibody. […] Thus, the 7 dSS fibroblasts rely on DHEA-sensitive pathways to maintain low levels of oxidized protein.
In addition to its role in providing amino acids and energy under starvation conditions, autophagy is involved in maintenance of cellular homeostasis and resistance to tumorigenesis through degradation of old or damaged proteins and entire organelles. […] To monitor the extent of protein oxidation in proliferating and contact-inhibited fibroblasts, the protein carbonyl groups were derivatized using 2,4-dinitrophenylhydrazine (DNP), and monitored using immunoblotting with an antibody that recognizes the covalently added DNP. […]

[2] = test system: skin papillomas and carcinomas; conditions: topical 7,12-dimethylbenz(a)anthracene (DMBA), mice; cited from earlier work
[3] = test system: spontaneous breast cancer; conditions: long-term treatment; female C3H (Avy/a) mice; cited from earlier work
[4] = test system: neoplasms, lymphoblastic lymphoma; conditions: p53-deficient mouse; cited from earlier work

## C[C@]12CC[C@H](O)CC1=CC[C@@H]1[C@@H]2CC[C@]2(C)C(=O)CC[C@@H]12 [DHEA, dehydroepiandrosterone]
P and CI14 fibroblasts
  cell death (PI labeling): statistically significant increase in cell death
[1]
  intracellular GSH pools: smaller pools of intracellular GSH
Oxidized proteins; 7 dSS fibroblasts
  oxidized protein levels: significantly increased
Oxidized proteins; proliferating fibroblasts
  oxidized protein levels: little effect
[2]
  development of skin papillomas and carcinomas: reduced
[3]
  spontaneous breast cancer occurrence: inhibit spontaneous breast cancer occurrence
[4]
  death due to neoplasms: delay death due to neoplasms
